In patent publication US11912682B2, “Isoindolinone compounds” (Monte Rosa Therapeutics, Inc., priority 2021, dated 2024):
Where two headings read alike, the source gives them in different places.

What was measured:
GSPT1 = GSPT1 (Homo sapiens (Human), UniProt P15170+Q96SW2); test: immunofluorescence assay for GSPT1 degradation in CAL-51 cells (Example 4); format: cell-based
Outline: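 CAL-51 cells on fibronectin-coated plates were treated 6 h with serial dilutions (30 μM to 0.1 nM), then fixed and immunostained for GSPT1 with DAPI and phalloidin counterstains. Per-cell mean GSPT1 intensity from high-content imaging, normalized to controls; DC50 by non-linear regression.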

IKZF1 (Ikaros) = IKZF1 (Ikaros) (Homo sapiens (Human), UniProt Q13422); test: selectivity by Western blot in MM1S cells, IKZF1; format: cell-based; design: key to IKZF1 degradation: A represents a no degradation observed at 30 μM; B represents trace degradation at 30 μM (below 20%); C represents weak degradation at 30 μM (below 50%); D represents degradation at 30 μM (>90%); E represents degradation at 3 μM (>90%); F represents degradation at 0.3 μM (>90%); conditions: for IKZF1 degradation: MM1S cells, 6 hours, 0.3, 3 and 30 μM
Procedure: MM1S cells were purchased from ATCC (cat. Number CRL-2974), sub-cultured in 90% RPMI 1640 with 10% FBS, supplemented with 1× P/S and incubated at 37° C., 5% CO2. Compounds were stored as 10 mM DMSO stock. For the assay, MM1S cells (3 million cells/well) were plated in 6-well plates and incubated over night. Cells were treated with respective compounds using a serial dilution: 0.3 μM, 3 μM and 30 μM as well as a vehicle only (DMSO) control for 6 hours. Media with suspension cells was subsequently transferred to 15 mL conical tubes, wells rinsed twice with ice-cold PBS and merged with cell suspension in respective 15 mL conical tube. Cells were spinned down, supernatant aspirated, pellets resuspended in ice-cold PBS and transferred to microtubes. Cells were spinned down, supernatant aspirated and pellets resuspended in 120 μL RIPA lysis buffer supplemented with protease and phosphatase inhibitors. Cell lysates were incubated on ice for 20 minutes followed by centrifugation at >20,000 xg for 5 min. Supernatants were transferred to fresh microtubes and stored at −80° C. Total protein concentration was determined using a BCA assay with a BSA standard curve and concentration of all samples was adjusted to 1 mg/mL. 25 μL 4× LDS sample buffer supplemented with 100 mM DTT was added to 75 μL sample. Samples were centrifuged (8,000 xg, 1 min) and incubated at 95° C. for 5 min followed by another centrifugation step (8,000 xg, 1 min). 20 μL of each sample was loaded on a 4-12% gel alongside a protein molecular weight marker. Gels were run in the presence of MOPS buffer at 80 Volts for 30 min, followed by 120 Volts for 1.5 h and proteins subsequently transferred onto nitrocellulose membranes at 20 Volts for 7 min using an iBlot2 Gel Transfer Device. Membranes were then cut horizontally into two pieces, covering 80-50 kDa and 50-25 kDa. Blocking the membranes was performed by gently shaking in 5% (w/v) skim milk in TSB-T for 1 hr at room temperature. All primary antibodies were used at a 1/1000 in 5% (w/v) BSA dissolved in TBST and incubated with membranes over night at 4° C. Anti-IKZF1 (Ikaros; D6N9Y; 14859S), anti-IKZF3 (Aiolos; D1C1E; 15103S) antibodies were purchased from Cell Signalling Technology, anti-ZFP91 antibody from Bethyl laboratories, anti-GSPT1 from Sigma Aldrich (HPA052488) and anti CK1alpha from AbCam (ab206652). After three washes with 1× TBST for 5 min, HRP-coupled secondary antibodies diluted in 5% (w/v) BSA/TBST (Goat Anti-Rb IgG, dil. 1/10,000; Goat Anti-Mouse IgG, dil. 1/5000) were added for 1 hr at room temperature. After three washes with 1× TBST (5 minutes each), membranes were incubated with ECL reagent for 1 min at room temperature. Chemiluminescence signals were then detected using a LAS-4000 system with default settings and signals quantified using Image Studio Lite software (version 5.2). Membrane parts previously incubated with antibody against CK1alpha were stripped off antibodies by incubating with stripping buffer for 30 minutes followed by three washed with TBST (5 min each), blocking with 5% (w/v) skim milk for 1 hr, and incubation with primary antibody against GAPDH overnight at 4° C. Subsequent washes, incubation with secondary antibody and signal acquisition were performed as described above.

[1] = 6 hours, read-out: Activity for GSPT1 degradation, Code (DC50)
[2] = GSPT1 degradation, read-out: DC50 value

Sequence of GSPT1 (P15170 whole entry): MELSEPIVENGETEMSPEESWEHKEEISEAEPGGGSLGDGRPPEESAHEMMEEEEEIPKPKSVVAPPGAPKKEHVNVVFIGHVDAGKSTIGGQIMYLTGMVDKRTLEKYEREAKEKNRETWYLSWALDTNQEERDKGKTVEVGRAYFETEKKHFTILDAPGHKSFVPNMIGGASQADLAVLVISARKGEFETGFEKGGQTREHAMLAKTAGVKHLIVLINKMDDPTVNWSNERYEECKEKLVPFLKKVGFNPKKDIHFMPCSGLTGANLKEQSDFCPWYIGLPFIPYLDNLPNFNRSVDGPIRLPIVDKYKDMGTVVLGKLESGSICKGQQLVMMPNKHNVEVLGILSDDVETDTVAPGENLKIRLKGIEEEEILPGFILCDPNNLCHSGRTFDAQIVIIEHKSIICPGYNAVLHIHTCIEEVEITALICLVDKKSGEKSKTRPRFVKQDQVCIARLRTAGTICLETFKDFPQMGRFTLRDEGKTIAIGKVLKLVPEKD
Sequence of GSPT1 (Q96SW2 whole entry): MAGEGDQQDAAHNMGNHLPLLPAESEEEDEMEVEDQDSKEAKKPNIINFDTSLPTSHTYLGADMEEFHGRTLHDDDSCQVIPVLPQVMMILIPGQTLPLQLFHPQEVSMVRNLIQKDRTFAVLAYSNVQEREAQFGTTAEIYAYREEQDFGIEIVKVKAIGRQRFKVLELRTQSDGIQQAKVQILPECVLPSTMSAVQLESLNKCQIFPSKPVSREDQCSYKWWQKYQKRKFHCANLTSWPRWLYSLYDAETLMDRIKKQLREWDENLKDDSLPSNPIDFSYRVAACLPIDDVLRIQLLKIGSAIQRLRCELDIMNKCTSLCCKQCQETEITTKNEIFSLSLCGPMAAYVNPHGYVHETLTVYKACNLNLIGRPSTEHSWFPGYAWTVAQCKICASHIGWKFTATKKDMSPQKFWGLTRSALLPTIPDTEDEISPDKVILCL
Sequence of GSPT1 (Q16531 2-1140 partner): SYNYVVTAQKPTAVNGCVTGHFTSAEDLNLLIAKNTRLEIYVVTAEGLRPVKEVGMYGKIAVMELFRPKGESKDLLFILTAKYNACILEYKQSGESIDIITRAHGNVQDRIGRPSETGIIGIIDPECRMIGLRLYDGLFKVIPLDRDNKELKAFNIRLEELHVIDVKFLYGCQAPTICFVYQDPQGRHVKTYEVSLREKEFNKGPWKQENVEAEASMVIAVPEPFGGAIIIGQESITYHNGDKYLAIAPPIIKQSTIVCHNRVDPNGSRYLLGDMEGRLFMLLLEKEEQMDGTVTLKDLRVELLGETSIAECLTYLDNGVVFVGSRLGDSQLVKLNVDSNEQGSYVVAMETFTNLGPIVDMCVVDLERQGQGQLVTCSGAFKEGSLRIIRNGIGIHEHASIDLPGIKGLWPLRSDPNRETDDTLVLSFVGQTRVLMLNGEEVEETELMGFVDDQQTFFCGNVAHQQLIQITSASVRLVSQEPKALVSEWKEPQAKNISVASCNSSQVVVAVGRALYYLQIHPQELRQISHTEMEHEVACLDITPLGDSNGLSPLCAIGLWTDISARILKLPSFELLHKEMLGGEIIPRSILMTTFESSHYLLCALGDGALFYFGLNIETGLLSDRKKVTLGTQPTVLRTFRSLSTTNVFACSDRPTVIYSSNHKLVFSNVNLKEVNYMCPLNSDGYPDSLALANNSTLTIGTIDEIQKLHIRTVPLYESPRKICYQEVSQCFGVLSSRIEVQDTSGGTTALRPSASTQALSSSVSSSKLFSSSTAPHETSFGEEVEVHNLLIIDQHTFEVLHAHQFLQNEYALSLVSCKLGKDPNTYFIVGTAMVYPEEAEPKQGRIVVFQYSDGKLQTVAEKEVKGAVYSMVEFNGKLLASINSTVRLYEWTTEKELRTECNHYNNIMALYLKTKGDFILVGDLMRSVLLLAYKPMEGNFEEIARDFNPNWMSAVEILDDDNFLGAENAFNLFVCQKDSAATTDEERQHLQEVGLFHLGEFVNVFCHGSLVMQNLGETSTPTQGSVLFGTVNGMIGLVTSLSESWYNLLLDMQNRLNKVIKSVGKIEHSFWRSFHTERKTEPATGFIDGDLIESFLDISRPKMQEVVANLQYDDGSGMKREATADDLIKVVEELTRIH
Sequence of IKZF1 (Ikaros) (Q13422 whole entry, looked up): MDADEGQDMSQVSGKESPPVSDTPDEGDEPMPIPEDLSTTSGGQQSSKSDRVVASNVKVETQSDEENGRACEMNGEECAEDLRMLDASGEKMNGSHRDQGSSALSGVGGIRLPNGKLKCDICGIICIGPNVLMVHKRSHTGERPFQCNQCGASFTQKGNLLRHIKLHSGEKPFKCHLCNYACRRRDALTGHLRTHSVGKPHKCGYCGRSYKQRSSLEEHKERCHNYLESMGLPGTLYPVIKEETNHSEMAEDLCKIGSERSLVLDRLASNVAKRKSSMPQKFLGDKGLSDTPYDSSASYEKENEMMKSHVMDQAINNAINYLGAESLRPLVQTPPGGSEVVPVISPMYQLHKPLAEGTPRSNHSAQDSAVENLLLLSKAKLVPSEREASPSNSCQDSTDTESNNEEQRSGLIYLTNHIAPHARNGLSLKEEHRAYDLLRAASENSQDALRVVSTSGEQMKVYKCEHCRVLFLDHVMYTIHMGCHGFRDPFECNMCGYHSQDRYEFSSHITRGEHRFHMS

Row | SMILES | DC50 (GSPT1; [1]) | DC50 (GSPT1; [2]) | IKZF1 degradation (IKZF1 (Ikaros)) | IKZF1 degradation (FIG. 1A) (IKZF1 (Ikaros); highest concentration tested of 30 μM)
1 | Cc1ccc(NC(=O)OCc2ccc3c(c2)C(=O)N(C2CCC(=O)NC2=O)C3)cc1Cl (stereo not shown) [Compound 10] | < 30 nM | ≤ 30 nM | A | none of the known the substrates IKZF1, IKZF3, SALL4, CK1alpha was degraded
2 | O=C1CCC(N2Cc3ccc(COC(=O)Nc4ccc(N5CCCCC5)nc4)cc3C2=O)C(=O)N1 (stereo not shown) [Compound 15] | < 30 nM | ≤ 30 nM | A | 
3 | CC(C)(C)c1ccc(NC(=O)OCc2ccc3c(c2)C(=O)N(C2CCC(=O)NC2=O)C3)cn1 (stereo not shown) [Compound 43] | < 30 nM | ≤ 30 nM | A | 
4 | O=C1CCC(N2Cc3ccc(COC(=O)Nc4ccc(-c5ccccc5)nc4)cc3C2=O)C(=O)N1 (stereo not shown) [Compound 42] | < 30 nM | ≤ 30 nM | A | 
5 | Cc1ncc(NC(=O)OCc2ccc3c(c2)C(=O)N(C2CCC(=O)NC2=O)C3)cc1Cl (stereo not shown) [Compound 6] | < 30 nM | ≤ 30 nM | A | 
